Data taken from patent publication US12286657B2, “Methods and compositions” (United Kingdom Research and Innovation, priority 2018, dated 2025).

How the values were obtained:
[1] = tested on: TEDAP (Vlm TE, serine 2463 replaced by DAP); assay: depsipeptidyl-TE complex formation with TEDAP (LC-ESI-MS); format: biochemical, Streptomyces tsusimaensis; conditions: incubation with TEDAP
[2] = tested on: PCC1RS/tRNACUA and PCC2RS/tRNACUA pairs; assay: amber codon suppression in reporter genes with photocaged-cysteine synthetase pairs; format: cell-based; conditions: cells provided with 3 or 4 and the relevant pair
Excerpt: Compounds 3 and 4 contain a conservative SH to NH2 substitution relative to photocaged cysteine derivatives that we have previously incorporated into proteins using the PCC1RS/tRNACUA and PCC2RS/tRNACUA pairs, respectively^32. (These pairs were derived from the pyrrolysyl-tRNA synthetase/tRNACUA pair).

TEDAP = assay: LC-ESI-MS analysis of Vlm TE reaction products, TEDAP; format: biochemical, Streptomyces tsusimaensis; conditions: incubation with TEDAP
Procedure: (§1) Extracted ion chromatograms (EICs) from HR-LC-ESI-MS of reactions of tetradepsipeptidyl-SNAC 7 (1.7 mM) and Vlm TE (6.5 μM). a, TEwt produces valinomycin as its major product. […] See Supplementary Table 2 for accurate mass analysis and deviations from calculated m/z values of each compound.
(§2) Purified TEwt or TEDAP at 0.2 mg mL-1 (6.5 μM) was incubated with tetradepsipeptidyl-SNAC 7 (1.7 mM), or a mix of tetradepsipeptidyl-SNAC 7 and deoxytetradepsipeptidyl-SNAC 8 (1.7 mM each) in buffer T. Samples were incubated at room temperature for 24 hours, and then quenched with one volume of 0.1% formic acid in acetonitrile. Next, samples were centrifuged at 20,000 g, flash frozen in liquid nitrogen and stored at −80° C. before HPLC analysis. For HPLC-MS analysis, frozen samples were thawed at room temperature, vortexed and clarified by centrifugation at 20,000 g before injection. HR-LC-ESI-MS was performed at the Mass Spectroscopy Facility (Department of Chemistry, McGill University) with an Agilent XDB-C8 (5 μm, 4.6×150 mm) column in a Dionex Ultimate 3000 UHPLC system coupled to a Bruker maXis impact QTOF mass spectrometer in positive ESI mode. […] Data was analyzed using the Bruker DataAnalysis software and the SmartFormula tool (Bruker).

Vlm TEwt = assay: LC-ESI-MS analysis of Vlm TE reaction products, TEwt; format: biochemical, Streptomyces tsusimaensis; conditions: incubation with Vlm TEwt
Procedure: as §1, §2

[3] = free amino acid (lysine sidechain; beta amino group of DAP); cited from earlier work
HA-tagged Ub = assay: ubiquitination test with UBE2L3 variants; format: biochemical; conditions: for E2-Ub complex formation: 0.2 μM E1, HA-tagged Ub, E2 loading buffer; for redox sensitivity of complex with Ub: presence of ß-mercaptoethanol
Procedure: Ubiquitination test with UBE2L3(C86DAP). […] Ub-UBE2L3: Thioester-linked (UBE2L3[wt]) or isopeptidelinked (UBE2L3[C86DAP]) E2-Ub complex.
In order to test whether UBE2L3(C86DAP5), which had been irradiated with UV light and incubated overnight at 37° C., could be charged with Ub, a reaction containing 0.2 μM E1 and HA-tagged Ub in E2 loading buffer was set up. Each reaction (positive control [wt], negative control [C86A] and [C86DAP]) was performed with and without Ub (see FIG. 23).

[4] = storage and handling of DAP amino acid 6-TFA; format: physicochemical
Excerpt: Storage: The dry sample of DAP amino acid 6-TFA was stored in air-tight dark glass vials in a cold, dry and dark environment and was stable for over 3 years without decomposition.
It is noteworthy that the vial containing 6-TFA taken out from the fridge or freezer was always allowed to warm to r.t. prior to opening and handling.

E. coli = assay: LC-MS based amino acid uptake assay (intracellular concentration of DAP derivatives); conditions: addition of 1 mM 6 to cell media
Ub-tev-His6 = assay: reactions of TEV with Ubtev (SDS-PAGE, western blot); format: biochemical; conditions: SDS-PAGE and western blot
Excerpt: The use of TEV(wt) results in cleavage of the TEV cleavage sequence. The use of TEV(C151A) results in minimal cleavage. The presence of DAP in the active site of TEV results in the presence of a new band in the coomassie gel, representing the isopeptide-linked TEV(C151DAP)-Ub complex (left). αUb and αStrep western blots of the reactions confirm the identity of the complex (TEV constructs contain a Strep tag). b, Tandem mass spectrometry of isopeptide-linked TEV(C151DAP)-Ub complex. Tandem mass spectrometry unambiguously identifies the DAP modification at the desired site and the expected tev-Gly-Gly modification on the residue, consistent with Ub trapping on DAP.
Tryptic MS/MS of the slower mobility band identifies the isopeptide linkage between DAP and Ub, confirming formation of the TEVDAP-Ub (FIG. 4b). Therefore, the substitution of the catalytic cysteine in TEV with DAP enables the creation of a protease that goes through the first step of the protease cycle: nucleophilic attack on the substrate carbonyl to form the first tetrahedral intermediate. This intermediate collapses, releasing the C-terminal fragment of the substrate and leaving the N-terminal fragment of the substrate covalently attached to the protease, through a stable amide bond that is not subject to hydrolysis. […]

## CC(=O)NCCSC(=O)[C@@H](NC(=O)[C@@H](C)OC(=O)[C@@H](NC(=O)CC(C)C)C(C)C)C(C)C (single isomer, unassigned) [deoxy-tetradepsipeptidyl-SNAC 8]
[1]
  acyl-TEDAP conjugate formation yield: ~70%

## N[C@@H](CNCc1ccccc1[N+](=O)[O-])C(=O)O [Compound 3]
[2]
  suppression of amber codons in reporter genes: did not function to suppress amber codons

## CC(=O)NCCSC(=O)C(NC(=O)C(C)OC(=O)C(NC(=O)C(O)C(C)C)C(C)C)C(C)C [tetradepsipeptidyl-SNAC 7, HO-D-Hiv-D-Val-L-Lac-L-Val-SNAC]
[1]
  acyl-TEDAP conjugate formation yield: > 60%
TEDAP
  valinomycin synthesis: did not observe valinomycin synthesis
Vlm TEwt
  valinomycin production: led to production of valinomycin

## NC[C@H](N)C(=O)O (stereo in doubt) [Compound 1, 2,3-diaminopropionic acid]
[3]
  pKa of the conjugate acid of the sidechain amine: 9.4

## UBE2L3(wt): wild type UBE2L3, positive control
HA-tagged Ub
  E2-Ub complex formation: higher molecular weight band could be observed
  redox sensitivity of complex with Ub: redox sensitive

## CC(SCCOC(=O)NC[C@H](N)C(=O)O)c1cc2c(cc1[N+](=O)[O-])OCO2 (mixture of isomers) [Compound 6]
[4]; dry sample, air-tight dark glass vials, cold, dry and dark environment
  stable without decomposition on storage: over 3 years
[4]; exposure to moist air
  light and moisture sensitivity on handling: light sensitive and slightly hygroscopic
E. coli
  intracellular concentration: approximately 2 mM

## UBE2L3(C86DAP): UBE2L3 with DAP at position 86
HA-tagged Ub
  E2-Ub complex formation: higher molecular weight band could also be detected
  redox sensitivity of complex with Ub: redox insensitive

## CC(NC[C@H](N)C(=O)O)c1cc2c(cc1[N+](=O)[O-])OCO2 (some centres unmarked) [Compound 4]
[2]
  suppression of amber codons in reporter genes: did not function to suppress amber codons

## CC(C)[C@@H]1NC(=O)[C@H](C)OC(=O)[C@@H](C(C)C)NC(=O)[C@@H](C(C)C)OC(=O)[C@H](C(C)C)NC(=O)[C@H](C)OC(=O)[C@@H](C(C)C)NC(=O)[C@@H](C(C)C)OC(=O)[C@H](C(C)C)NC(=O)[C@H](C)OC(=O)[C@@H](C(C)C)NC(=O)[C@@H](C(C)C)OC1=O [valinomycin, reference compound]
[1]
  acyl-TEDAP conjugate formation yield: 65-100%

B1: TEVDAP: TEV protease with amino acid 1 (DAP) at position 151 (protein)
chain: GESLFKGPRDYNPISSTICHLTNESDGHTTSLYGIGFGPFIITNKHLFRRNNGTLLVQSLHGVFKVKNTTTLQQHLIDGRDMIIIRMPKDFPPFPQKLKFREPQREERICLVTTNFQTKSMSSMVSDTSCTFPSSDGIFWKHWIQTKDGQCGSPLVSTRDGFIVGIHSASNFTNTNNYFTSVPKNFMELLTNQEAQQWVSGWRLNADSVLWGGHKVFMSKPEEPFQPVKEATQLMN
Ub-tev-His6
  outcome of incubation with Ub-tev-His6: formation of a new band

B2: wild-type TEV: wild-type tobacco etch virus protease (protein)
chain: GESLFKGPRDYNPISSTICHLTNESDGHTTSLYGIGFGPFIITNKHLFRRNNGTLLVQSLHGVFKVKNTTTLQQHLIDGRDMIIIRMPKDFPPFPQKLKFREPQREERICLVTTNFQTKSMSSMVSDTSCTFPSSDGIFWKHWIQTKDGQCGSPLVSTRDGFIVGIHSASNFTNTNNYFTSVPKNFMELLTNQEAQQWVSGWRLNADSVLWGGHKVFMSKPEEPFQPVKEATQLMN
Ub-tev-His6
  outcome of incubation with Ub-tev-His6: cleaves Ub-tev-His6
